For test [1], the target named is human GLP-1 receptor (hGLP-1R) (Homo sapiens, UniProt P43220). Description: cAMP production (HTRF) in CHO cells expressing hGLP-1R. The conditions noted are these: for pEC50: Table 6, peptides modified at position 17, cAMP in CHO hGLP-1R cells, geometric mean, read-out: hGLP-1R EC50; for % Relative Potency Ratio: Table 6, % GLP-1R activity relative to GLP-1 / % GlucR activity relative to glucagon. It is filed as cell-based. Further details: expressed in transfected cells. The gist of the method:
(§1)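 Read-out: HTRF cAMP (anti-cAMP cryptate donor, cAMP-d2 acceptor in conjugate/lysis buffer), converted to % Delta F and fitted by 4-parameter logistic for EC50. Cell densities were 1×10^5 cells/mL (hGLP-1R) or 2×10^5 cells/mL (hGCGR). Stimulation lasted 30 min at room temperature.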

Test [2] addresses human glucagon receptor (hGCGR) (Homo sapiens, UniProt P47871). Nature of the test: cAMP production (HTRF) in CHO cells expressing hGCGR. Further details: expressed in transfected cells. It is filed as cell-based. To be noted: Table 6, peptides modified at position 17; cAMP in CHO hGCGR cells; geometric mean; read-out: hGluc-R EC50. The method, boiled down: as §1
In general terms: cAMP levels reflect the balance of adenylyl cyclase and phosphodiesterase activity.

The results in this text go back to patent publication US20250353891A1 (MEDIMMUNE LIMITED, priority 2022, published 2025).

pEC50: −log10 of the molar value. Starred links: 1 amine or outer side, 2 acyl side, 3 side chain; linkers in the order of their positions; H or OH if unused. Non-standard residues stand in square brackets, D forms with d. Residues, ends and D or L forms follow the SMILES beside them. Groups on a side chain read outwards from the residue. *: point of attachment. C18 diacid = O=C(O)CCCCCCCCCCCCCCCCC(=O)*; γGlu = O=C(O)[C@H](CCC(=O)[*:2])N[*:1]; αMeF = C[C@](N)(Cc1ccccc1)C(=O)O; AEEA = NCCOCCOCC(=O)O; Aib = CC(C)(N)C(=O)O

human GLP-1 receptor (hGLP-1R), sequence (P43220 24-463): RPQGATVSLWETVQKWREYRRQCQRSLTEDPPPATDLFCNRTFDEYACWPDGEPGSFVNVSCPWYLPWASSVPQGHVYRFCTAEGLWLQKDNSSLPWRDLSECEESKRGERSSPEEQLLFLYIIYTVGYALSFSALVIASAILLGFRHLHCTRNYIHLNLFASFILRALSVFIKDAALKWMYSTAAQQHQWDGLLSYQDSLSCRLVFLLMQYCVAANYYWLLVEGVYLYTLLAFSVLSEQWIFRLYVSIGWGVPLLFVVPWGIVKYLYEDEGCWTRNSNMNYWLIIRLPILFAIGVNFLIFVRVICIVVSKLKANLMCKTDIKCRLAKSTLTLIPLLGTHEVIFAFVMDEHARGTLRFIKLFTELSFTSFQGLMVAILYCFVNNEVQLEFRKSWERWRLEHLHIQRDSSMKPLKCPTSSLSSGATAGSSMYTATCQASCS
human glucagon receptor (hGCGR), sequence (P47871 26-477): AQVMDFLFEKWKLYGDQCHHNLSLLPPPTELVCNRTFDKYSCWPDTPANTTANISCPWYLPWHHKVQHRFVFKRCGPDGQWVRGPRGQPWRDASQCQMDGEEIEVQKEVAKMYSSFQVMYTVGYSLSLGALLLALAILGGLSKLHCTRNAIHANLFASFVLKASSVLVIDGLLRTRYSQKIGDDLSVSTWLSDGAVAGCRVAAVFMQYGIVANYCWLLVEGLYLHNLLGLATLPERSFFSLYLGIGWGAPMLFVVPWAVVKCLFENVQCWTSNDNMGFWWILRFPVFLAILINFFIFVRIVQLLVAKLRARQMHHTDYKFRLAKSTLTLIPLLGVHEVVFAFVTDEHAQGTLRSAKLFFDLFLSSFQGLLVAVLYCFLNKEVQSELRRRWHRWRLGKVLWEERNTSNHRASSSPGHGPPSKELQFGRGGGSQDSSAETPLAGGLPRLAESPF

The pEC50 is −log10 of the EC50, conventionally taken in molar units. For the compound `CC(C)C[C@H](NC(=O)[C@H](Cc1c[nH]c2ccccc12)NC(=O)[C@H](CCC(N)=O)NC(=O)[C@@H](NC(=O)[C@H](Cc1ccccc1)NC(=O)[C@H](CC(=O)O)NC(=O)[C@H](CCCNC(=N)N)NC(=O)[C@H](C)NC(=O)[C@H](CCCNC(=N)N)NC(=O)[C@H](CCCCNC(=O)COCCOCCNC(=O)COCCOCCNC(=O)CC[C@H](NC(=O)CCCCCCCCCCCCCCCCCCC(=O)O)C(=O)O)NC(=O)[C@@H](NC(=O)[C@H](CC(=O)O)NC(=O)[C@H](CC(C)C)NC(=O)[C@](C)(Cc1ccccc1)NC(=O)[C@H](CCCCN)NC(=O)[C@H](CO)NC(=O)[C@@H](NC(=O)[C@H](CC(=O)O)NC(=O)[C@H](CO)NC(=O)[C@@H](NC(=O)[C@H](Cc1ccccc1)NC(=O)[C@@H](NC(=O)CNC(=O)[C@H](CCC(N)=O)NC(=O)C(C)(C)NC(=O)[C@@H](N)Cc1c[nH]cn1)[C@@H](C)O)[C@@H](C)O)C(C)C)[C@@H](C)O)C(C)C)C(=O)N[C@@H](CC(C)C)C(=O)N[C@@H](CCC(=O)O)C(=O)NC(C)(C)C(=O)NCC(N)=O` [Peptide 457], the pEC50 was 9.96 in test [1] and 9.69 in test [2]. Further, the “% Relative Potency Ratio” value in test [1] is given as 3.7.
On the same counts, the results for `CC(C)C[C@H](NC(=O)[C@H](Cc1c[nH]c2ccccc12)NC(=O)[C@H](CCC(N)=O)NC(=O)[C@@H](NC(=O)[C@H](Cc1ccccc1)NC(=O)[C@H](CC(=O)O)NC(=O)[C@H](CCCNC(=N)N)NC(=O)[C@H](C)NC(=O)[C@H](CCCNC(=N)N)NC(=O)[C@H](CCCCNC(=O)COCCOCCNC(=O)COCCOCCNC(=O)CC[C@H](NC(=O)CC[C@H](NC(=O)CCCCCCCCCCCCCCCCCCC(=O)O)C(=O)O)C(=O)O)NC(=O)[C@@H](NC(=O)[C@H](CC(=O)O)NC(=O)[C@H](CC(C)C)NC(=O)[C@](C)(Cc1ccccc1)NC(=O)[C@H](CCCCN)NC(=O)[C@H](CO)NC(=O)[C@@H](NC(=O)[C@H](CC(=O)O)NC(=O)[C@H](CO)NC(=O)[C@@H](NC(=O)[C@H](Cc1ccccc1)NC(=O)[C@@H](NC(=O)CNC(=O)[C@H](CCC(N)=O)NC(=O)C(C)(C)NC(=O)[C@@H](N)Cc1c[nH]cn1)[C@@H](C)O)[C@@H](C)O)C(C)C)[C@@H](C)O)C(C)C)C(=O)N[C@@H](CC(C)C)C(=O)N[C@@H](CCC(=O)O)C(=O)NC(C)(C)C(=O)NCC(N)=O` [Peptide 458] are 9.94, 9.42 and 6.7.
The corresponding values for `CC(C)C[C@H](NC(=O)[C@H](CC(C)C)NC(=O)[C@H](Cc1c[nH]c2ccccc12)NC(=O)[C@H](CCCNC(=N)N)NC(=O)[C@@H](NC(=O)[C@H](Cc1ccccc1)NC(=O)[C@H](CC(=O)O)NC(=O)[C@H](CCC(N)=O)NC(=O)[C@H](C)NC(=O)[C@H](CCCNC(=N)N)NC(=O)[C@H](CCCCNC(=O)COCCOCCNC(=O)COCCOCCNC(=O)CC[C@H](NC(=O)CCCCCCCCCCCCCCCCC(=O)O)C(=O)O)NC(=O)[C@H](CCCCN)NC(=O)[C@H](CC(=O)O)NC(=O)[C@H](CC(C)C)NC(=O)[C@](C)(Cc1ccccc1)NC(=O)[C@H](CCCCN)NC(=O)[C@H](CO)NC(=O)[C@@H](NC(=O)[C@H](CC(=O)O)NC(=O)[C@H](CO)NC(=O)[C@@H](NC(=O)[C@H](Cc1ccccc1)NC(=O)[C@@H](NC(=O)CNC(=O)[C@H](CCC(N)=O)NC(=O)C(C)(C)NC(=O)[C@@H](N)Cc1c[nH]cn1)[C@@H](C)O)[C@@H](C)O)C(C)C)C(C)C)C(=O)N[C@@H](C)C(=O)N[C@@H](CCC(=O)O)C(N)=O` [Peptide 459] (H-H[Aib]QGTFTSDVSK[αMeF]LDKK([AEEA-AEEA-γGlu-C18 diacid])RAQDFVRWLLAE-NH2) are 10.49, 10.43 and 2.2.
The corresponding values for `CC(C)C[C@H](NC(=O)[C@H](CC(C)C)NC(=O)[C@H](Cc1c[nH]c2ccccc12)NC(=O)[C@H](CCCNC(=N)N)NC(=O)[C@@H](NC(=O)[C@H](Cc1ccccc1)NC(=O)[C@H](CC(=O)O)NC(=O)[C@H](CCC(N)=O)NC(=O)[C@H](C)NC(=O)[C@H](CCCNC(=N)N)NC(=O)[C@H](CCCCNC(=O)COCCOCCNC(=O)COCCOCCNC(=O)CC[C@H](NC(=O)CCCCCCCCCCCCCCCCCCC(=O)O)C(=O)O)NC(=O)[C@H](CCCCN)NC(=O)[C@H](CC(=O)O)NC(=O)[C@H](CC(C)C)NC(=O)[C@](C)(Cc1ccccc1)NC(=O)[C@H](CCCCN)NC(=O)[C@H](CO)NC(=O)[C@@H](NC(=O)[C@H](CC(=O)O)NC(=O)[C@H](CO)NC(=O)[C@@H](NC(=O)[C@H](Cc1ccccc1)NC(=O)[C@@H](NC(=O)CNC(=O)[C@H](CCC(N)=O)NC(=O)C(C)(C)NC(=O)[C@@H](N)Cc1c[nH]cn1)[C@@H](C)O)[C@@H](C)O)C(C)C)C(C)C)C(=O)N[C@@H](C)C(=O)N[C@@H](CCC(=O)O)C(N)=O` [Peptide 460] are 9.93, 10.18 and 1.1.
For the compound `CC(C)C[C@H](NC(=O)[C@H](CC(C)C)NC(=O)[C@H](Cc1c[nH]c2ccccc12)NC(=O)[C@H](CCC(N)=O)NC(=O)[C@@H](NC(=O)[C@H](Cc1ccccc1)NC(=O)[C@H](CC(=O)O)NC(=O)[C@H](CCCNC(=N)N)NC(=O)[C@H](C)NC(=O)[C@H](CCCNC(=N)N)NC(=O)[C@H](CCCCNC(=O)COCCOCCNC(=O)COCCOCCNC(=O)CC[C@H](NC(=O)CCCCCCCCCCCCCCCCC(=O)O)C(=O)O)NC(=O)[C@@H](NC(=O)[C@H](CC(=O)O)NC(=O)[C@H](CC(C)C)NC(=O)[C@](C)(Cc1ccccc1)NC(=O)[C@H](CCCCN)NC(=O)[C@H](CO)NC(=O)[C@@H](NC(=O)[C@H](CC(=O)O)NC(=O)[C@H](CO)NC(=O)[C@@H](NC(=O)[C@H](Cc1ccccc1)NC(=O)[C@@H](NC(=O)CNC(=O)[C@H](CCC(N)=O)NC(=O)C(C)(C)NC(=O)[C@@H](N)Cc1c[nH]cn1)[C@@H](C)O)[C@@H](C)O)C(C)C)[C@@H](C)O)C(C)C)C(=O)N[C@@H](CCC(=O)O)C(=O)N[C@@H](C)C(=O)NCC(=O)O` [Peptide 462] (H-H[Aib]QGTFTSDVSK[αMeF]LDTK([AEEA-AEEA-γGlu-C18 diacid])RARDFVQWLLEAG-OH; N-terminus assumed), in test [1], the negative logarithm of the EC50 (pEC50) was 10.40 and the “% Relative Potency Ratio” value is 4.5. Moreover, the pEC50 in test [2] is 10.05.
For the compound `CC(C)C[C@H](NC(=O)[C@H](CC(=O)O)NC(=O)[C@H](CC(C)C)NC(=O)[C@](C)(Cc1ccccc1)NC(=O)[C@H](CCCCN)NC(=O)[C@H](CO)NC(=O)[C@@H](NC(=O)[C@H](CC(=O)O)NC(=O)[C@H](CO)NC(=O)[C@@H](NC(=O)[C@H](Cc1ccccc1)NC(=O)[C@@H](NC(=O)CNC(=O)[C@H](CCC(N)=O)NC(=O)C(C)(C)NC(=O)[C@@H](N)Cc1c[nH]cn1)[C@@H](C)O)[C@@H](C)O)C(C)C)C(=O)N[C@@H](CCCCNC(=O)COCCOCCNC(=O)COCCOCCNC(=O)CC[C@H](NC(=O)CC[C@H](NC(=O)CCCCCCCCCCCCCCCCC(=O)O)C(=O)O)C(=O)O)C(=O)N[C@@H](CCCNC(=N)N)C(=O)N[C@@H](C)C(=O)N[C@@H](CCC(N)=O)C(=O)N[C@@H](CC(=O)O)C(=O)N[C@@H](Cc1ccccc1)C(=O)N[C@H](C(=O)N[C@@H](CCC(N)=O)C(=O)N[C@@H](Cc1c[nH]c2ccccc12)C(=O)N[C@@H](CC(C)C)C(=O)N[C@@H](CC(C)C)C(=O)NC(C)(C)C(=O)N[C@H](C(=O)O)[C@@H](C)O)C(C)C` [Peptide 465] (H-H[Aib]QGTFTSDVSK[αMeF]LDLK([AEEA-AEEA-γGlu-γGlu-C18 diacid])RAQDFVQWLL[Aib]T-OH; N-terminus assumed), in test [1], the pEC50 was 9.31 and the “% Relative Potency Ratio” value is on record as 1.8. Moreover, in test [2], the pEC50 is 9.36.
`CC(C)C[C@H](NC(=O)[C@H](Cc1c[nH]c2ccccc12)NC(=O)[C@H](CCC(N)=O)NC(=O)[C@@H](NC(=O)[C@H](Cc1ccccc1)NC(=O)[C@H](CC(=O)O)NC(=O)[C@H](CCC(N)=O)NC(=O)[C@H](C)NC(=O)[C@H](CCCNC(=N)N)NC(=O)[C@H](CCCCNC(=O)COCCOCCNC(=O)COCCOCCNC(=O)CC[C@H](NC(=O)CCCCCCCCCCCCCCCCC(=O)O)C(=O)O)NC(=O)[C@@H](NC(=O)[C@H](CC(=O)O)NC(=O)[C@H](CC(C)C)NC(=O)[C@](C)(Cc1ccccc1)NC(=O)[C@H](CCCCN)NC(=O)[C@H](CO)NC(=O)[C@@H](NC(=O)[C@H](CC(=O)O)NC(=O)[C@H](CO)NC(=O)[C@@H](NC(=O)[C@H](Cc1ccccc1)NC(=O)[C@@H](NC(=O)CNC(=O)[C@H](CCC(N)=O)NC(=O)C(C)(C)NC(=O)[C@@H](N)Cc1c[nH]cn1)[C@@H](C)O)[C@@H](C)O)C(C)C)[C@@H](C)O)C(C)C)C(=O)N[C@@H](CC(C)C)C(=O)N[C@@H](CCC(=O)O)C(=O)NC(C)(C)C(=O)NCC(N)=O` [Peptide 466] (H-H[Aib]QGTFTSDVSK[αMeF]LDTK([AEEA-AEEA-γGlu-C18 diacid])RAQDFVQWLLE[Aib]G-NH2; N-terminus assumed): in test [1], the pEC50 was 10.45 and the “% Relative Potency Ratio” value turned out to be 7.3. Moreover, the pEC50 in test [2] is 9.88.
On the same counts, the results for `CC(C)C[C@H](NC(=O)[C@H](Cc1c[nH]c2ccccc12)NC(=O)[C@H](CCC(N)=O)NC(=O)[C@@H](NC(=O)[C@H](Cc1ccccc1)NC(=O)[C@H](CC(=O)O)NC(=O)[C@H](CCC(N)=O)NC(=O)[C@H](C)NC(=O)[C@H](CCCNC(=N)N)NC(=O)[C@H](CCCCNC(=O)COCCOCCNC(=O)COCCOCCNC(=O)CC[C@H](NC(=O)CC[C@H](NC(=O)CCCCCCCCCCCCCCCCC(=O)O)C(=O)O)C(=O)O)NC(=O)[C@@H](NC(=O)[C@H](CC(=O)O)NC(=O)[C@H](CC(C)C)NC(=O)[C@](C)(Cc1ccccc1)NC(=O)[C@H](CCCCN)NC(=O)[C@H](CO)NC(=O)[C@@H](NC(=O)[C@H](CC(=O)O)NC(=O)[C@H](CO)NC(=O)[C@@H](NC(=O)[C@H](Cc1ccccc1)NC(=O)[C@@H](NC(=O)CNC(=O)[C@H](CCC(N)=O)NC(=O)C(C)(C)NC(=O)[C@@H](N)Cc1c[nH]cn1)[C@@H](C)O)[C@@H](C)O)C(C)C)[C@@H](C)O)C(C)C)C(=O)N[C@@H](CC(C)C)C(=O)N[C@@H](CCC(=O)O)C(=O)NC(C)(C)C(=O)NCC(N)=O` [Peptide 468] are 10.17, 8.6 and 9.53.
